Test results from patent publication US6750381B2, “Pathogen-resistant plants transformed with a DNA encoding sarcotoxin 1A linked to a signal peptide and a method for production thereof” (National Institute of Agrobiological Sciences, priority 1996, dated 2004).

How the values were obtained:
Assay in all cases: Anti-fungal activity of Sarcotoxin 1a in vitro (hyphal area on agar plate)
Type in all cases: cell-based
[1] = tested on: Rhizoctonia solani AG-4 1272; details: Czapek's modified medium, 22° C. in the dark; FIG. 13
Procedure: (§1) Sarcotoxin 1a was measured for an anti-fungal activity against Fusarium oxysporum F-3, Rhizoctonia solani, and Rhizoctonia solani AG-4 1272.
(§2) It has not been known if Sarcotoxin 1a has an anti-fungal activity and how to measure the activity. Therefore, a pre-culture medium and a test medium were variously studied. The pre-culture medium, in which a lawn may be uniformly enlarged within a short period of time, was selected. The test medium, which controls the extension of hyphae as much as possible and allows easy confirmation, was selected.
(§3) (i) Czapek's modified medium (10 g of sucrose, 0.5 g of MgSO4.7H2O, 2.0 g of NaNO3, 0.01 g of Fe2(SO4)3, 1.0 g of K2HPO4, 0.5 g of KCl, 15 g of agarose per liter, pH 6.8 to 7.0; used for Rhizoctonia solani AG-4 1272), (ii) 5-fold diluted PDA medium (7.8 g of Bacto (Trademark) Poteto Dextrose Agar, 12 g of agarose per liter; used for Fusarium oxysporum F-3), (iii) Na2HPO4—NaH2PO4 buffer (15 g/l agarose, pH 5.8; used for Rhizoctonia solani).
(§4) The media for detection were autoclaved. When the media was cooled to 50° C., Sarcotoxin 1a (synthesized by a peptide synthesis and purified to 99% or more by HPLC) was added to each medium. Each of the resulting media was dispensed into a 12-well microplate at 400 μl per well and solidified.
(§5) Fusarium oxysporum F-3, Rhizoctonia solani, and Rhizoctonia solani AG-4 1272 were respectively pre-cultured in a PDA media (39 g/l Bacto (Trademark) Poteto Dextrose Agar) at 22° C. for 2 days.
(§6) An outermost lawn of each hypha spreading over almost the entire surface of the PDA medium of a 9 cm-petri dish was punched with a cork borer with a diameter of 4 mm, and each fungi was placed in the center of a well of a test plate in such a manner that the surface of the layer faced down. Each test plate for detection was kept at 22° C. in the dark.
(§7) Each test plate inoculated with the above-mentioned pathogenic fungi was measured for the size of each hypha growing under transmitted light at established periods, and the area of each hypha and a standard deviation were calculated (see FIGS. 12, 13, and 14). […]

Rhizoctonia solani = details: Na2HPO4-NaH2PO4 buffer agarose pH 5.8, 22° C. in the dark; FIG. 14
Procedure: as §1, §2, §3, §4, §5, §6, §7

Fusarium oxysporum F-3 = details: 5-fold diluted PDA medium, 22° C. in the dark; FIG. 12
Procedure: as §1, §2, §3, §4, §5, §6, §7

Measured: anti-fungal properties (area of each hypha)

Sarcotoxin 1a (GWLKKIGKKIERVGQHTRDATIQGLGIAQQAANVAATAR) [anti-bacterial peptide derived from Boettherisca peregrina (Diptera insect); synthesized by a peptide synthesis and purified to 99% or more by HPLC]
concentration-dependent manner: all assays above
